Test results as given in patent US6737383B1, “Herbicidal oxadiazolidines” (priority 1999, dated 2004).

What was measured:
[1] = tested on: bedstraw; experiment: Test B pre/postemergence bedstraw; format: in vivo, Galium aparine; conditions: for Bedstraw plant response rating: Postemergence
Method in brief: (§1)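 Test chemicals in a non-phytotoxic solvent mixture with surfactant were sprayed preemergence onto planted seeds and postemergence onto plants 2 to 18 cm tall (1- to 4-leaf stage). After twelve to sixteen days in a greenhouse, injury was visually rated against untreated controls from 0 (no effect) to 10 (complete control).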

[2] = tested on: blackgrass; experiment: Test B pre/postemergence blackgrass; format: in vivo, Alopecurus myosuroides; conditions: for Blackgrass plant response rating: Postemergence; for Plant response rating, Blackgrass: Preemergence
Method in brief: as §1

[3] = tested on: surinam grass; experiment: Test B pre/postemergence surinam grass; format: in vivo, Brachiaria decumbens; conditions: for B. signalgrass plant response rating: Postemergence; for Plant response rating, B. signalgrass: Preemergence
Method in brief: as §1

[4] = tested on: cocklebur; experiment: Test B pre/postemergence cocklebur; format: in vivo, Xanthium strumarium; conditions: for Cocklebur plant response rating: Postemergence; for Plant response rating, Cocklebur: Preemergence
Method in brief: as §1

[5] = tested on: corn; experiment: Test B pre/postemergence corn; format: in vivo, Zea mays; conditions: for Corn plant response rating: Postemergence; for Plant response rating, Corn: Preemergence
Method in brief: as §1

[6] = tested on: crabgrass; experiment: Test B pre/postemergence crabgrass; format: in vivo, Digitaria sanguinalis; conditions: for Crabgrass plant response rating: Postemergence; for Plant response rating, Crabgrass: Preemergence
Method in brief: as §1

[7] = tested on: giant foxtail; experiment: Test B pre/postemergence giant foxtail; format: in vivo, Setaria faberii; conditions: for Giant foxtail plant response rating: Postemergence; for Plant response rating, Giant foxtail: Preemergence
Method in brief: as §1

[8] = tested on: morningglory; experiment: Test B pre/postemergence morningglory; format: in vivo, Ipomoea hederacea; conditions: for Morningglory plant response rating: Postemergence; for Plant response rating, Morningglory: Preemergence
Method in brief: as §1

[9] = tested on: pigweed; experiment: Test B pre/postemergence pigweed; format: in vivo, Amaranthus retroflexus; conditions: for Redroot pigweed plant response rating: Postemergence; for Plant response rating, Redroot pigweed: Preemergence
Method in brief: as §1

[10] = tested on: rape; experiment: Test B pre/postemergence rape; format: in vivo, Brassica napus; conditions: for Rape plant response rating: Postemergence; for Plant response rating, Rape: Preemergence
Method in brief: as §1

[11] = tested on: soybean; experiment: Test B pre/postemergence soybean; format: in vivo, Glycine max; conditions: for Soybean plant response rating: Postemergence; for Plant response rating, Soybean: Preemergence
Method in brief: as §1

[12] = tested on: sugar beet; experiment: Test B pre/postemergence sugar beet; format: in vivo, Beta vulgaris; conditions: for Sugarbeets plant response rating: Postemergence; for Plant response rating, Sugarbeets: Preemergence
Method in brief: as §1

[13] = tested on: velvetleaf; experiment: Test B pre/postemergence velvetleaf; format: in vivo, Abutilon theophrasti; conditions: for Velvetleaf plant response rating: Postemergence; for Plant response rating, Velvetleaf: Preemergence
Method in brief: as §1

[14] = tested on: wheat; experiment: Test B pre/postemergence wheat; format: in vivo, Triticum aestivum; conditions: for Wheat plant response rating: Postemergence; for Plant response rating, Wheat: Preemergence
Method in brief: as §1

[15] = tested on: wild oat; experiment: Test B pre/postemergence wild oat; format: in vivo, Avena fatua; conditions: for Wild oats plant response rating: Postemergence; for Plant response rating, Wild oats: Preemergence
Method in brief: as §1

[16] = tested on: purple nutsedge; experiment: Test B pre/postemergence purple nutsedge; format: in vivo, Cyperus rotundus; conditions: for Nutsedge plant response rating: Postemergence; for Plant response rating, Nutsedge: Preemergence
Method in brief: as §1

[17] = tested on: rice; experiment: Test B flood test rice; format: in vivo, Oryza sativa
Method in brief: (§2)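 Flood test on plants grown to the 2-leaf stage; treated plants kept in greenhouse twelve to sixteen days, then visually rated against controls on a 0 (no effect) to 10 (complete control) scale.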

[18] = tested on: smallflower flatsedge; experiment: Test B flood test smallflower flatsedge; format: in vivo, Cyperus difformis
Method in brief: as §2

[19] = tested on: duck salad; experiment: Test B flood test duck salad; format: in vivo, Heteranthera limosa
Method in brief: as §2

[20] = tested on: bamyardgrass; experiment: Test B flood test barnyardgrass; format: in vivo, Echinochloa crus-galli
Method in brief: as §2

[21] = Rate 125 g/ha, scale of 0 to 10 where 0 is no effect and 10 is complete control
[22] = Rate 250 g/ha, scale 0 to 10, 0 is no effect, 10 is complete control
[23] = Rate 1000 g/ha, scale 0 to 10 (0 no effect, 10 complete control)
[24] = Rate 250 g/ha, scale 0 to 10 (0 no effect, 10 complete control)
[25] = Rate 500 g/ha, scale of 0 to 10 where 0 is no effect and 10 is complete control
[26] = Rate 500 g/ha, scale 0 to 10, 0 is no effect, 10 is complete control
[27] = Pre-emergence, Rate 1000 g/ha, scale 0 to 10 (0 no effect, 10 complete control)
[28] = Rate 125 g/ha, under heading Pre-emergence, flood test species, visual evaluation after twelve to sixteen days
[29] = Rate 250 g/ha, Pre-emergence (flood test species), scale 0 to 10, 0 is no effect, 10 is complete control
[30] = Rate 500 g/ha, Pre-emergence section of Table B, 0 to 10 scale (0 no effect, 10 complete control)

CCOC(=O)CC(C(=O)OCC)n1c(=O)on(C(=O)N(c2ccc(Cl)cc2)C(C)C)c1=O (stereo not drawn) [Compound 681]
7: Plant response rating, Crabgrass [6, 25] | Morningglory plant response rating [8, 26] | Redroot pigweed plant response rating [9, 23]
9: Plant response rating, Giant foxtail [7, 25] | Plant response rating, Giant foxtail [7, 23]
8: Plant response rating, Crabgrass [6, 23]
1: Plant response rating, Blackgrass [2, 24] | Soybean plant response rating [11, 26]
3: Plant response rating, Blackgrass [2, 25] | Giant foxtail plant response rating [7, 23] | Plant response rating, Redroot pigweed [9, 25] | Plant response rating, Wild oats [15, 23]
4: Blackgrass plant response rating [2, 23] | Plant response rating, B. signalgrass [3, 23]
2: Crabgrass plant response rating [6, 23] | Plant response rating, Crabgrass [6, 24] | Redroot pigweed plant response rating [9, 22]
0: Bedstraw plant response rating [1, 21] | Plant response rating, Bedstraw ([1]; Preemergence, Rate 125 g/ha, scale of 0 to 10 where 0 is no effect and 10 is complete control) | Bedstraw plant response rating [1, 22] | Blackgrass plant response rating [2, 21] | Plant response rating, Blackgrass [2, 21] | Blackgrass plant response rating [2, 22] | Blackgrass plant response rating [2, 26] | B. signalgrass plant response rating [3, 21] | B. signalgrass plant response rating [3, 23] | Plant response rating, B. signalgrass [3, 21] | Plant response rating, B. signalgrass [3, 24] | Plant response rating, B. signalgrass [3, 25] | B. signalgrass plant response rating [3, 22] | B. signalgrass plant response rating [3, 26] | Cocklebur plant response rating [4, 21] | Cocklebur plant response rating [4, 23] | Plant response rating, Cocklebur [4, 21] | Plant response rating, Cocklebur [4, 24] | Plant response rating, Cocklebur [4, 25] | Cocklebur plant response rating [4, 22] | Cocklebur plant response rating [4, 26] | Corn plant response rating [5, 21] | Corn plant response rating [5, 23] | Plant response rating, Corn [5, 21] | Plant response rating, Corn [5, 24] | Plant response rating, Corn [5, 25] | Corn plant response rating [5, 22] | Corn plant response rating [5, 26] | Plant response rating, Corn [5, 23] | Crabgrass plant response rating [6, 21] | Plant response rating, Crabgrass [6, 21] | Crabgrass plant response rating [6, 22] | Crabgrass plant response rating [6, 26] | Giant foxtail plant response rating [7, 21] | Plant response rating, Giant foxtail [7, 21] | Giant foxtail plant response rating [7, 22] | Giant foxtail plant response rating [7, 26] | Morningglory plant response rating [8, 21] | Plant response rating, Morningglory [8, 21] | Plant response rating, Morningglory [8, 25] | Morningglory plant response rating [8, 22] | Plant response rating, Morningglory [8, 23] | Redroot pigweed plant response rating [9, 21] | Plant response rating, Redroot pigweed [9, 21] | Rape plant response rating [10, 21] | Rape plant response rating [10, 23] | Plant response rating, Rape [10, 21] | Plant response rating, Rape [10, 25] | Rape plant response rating [10, 22] | Rape plant response rating [10, 26] | Plant response rating, Rape [10, 23] | Soybean plant response rating [11, 21] | Plant response rating, Soybean [11, 21] | Plant response rating, Soybean [11, 25] | Soybean plant response rating [11, 22] | Plant response rating, Soybean [11, 23] | Sugarbeets plant response rating [12, 21] | Plant response rating, Sugarbeets [12, 21] | Plant response rating, Sugarbeets [12, 25] | Sugarbeets plant response rating [12, 22] | Sugarbeets plant response rating [12, 26] | Plant response rating, Sugarbeets [12, 23] | Velvetleaf plant response rating [13, 21] | Plant response rating, Velvetleaf [13, 21] | Plant response rating, Velvetleaf [13, 25] | Velvetleaf plant response rating [13, 22] | Velvetleaf plant response rating [13, 26] | Plant response rating, Velvetleaf [13, 23] | Wheat plant response rating [14, 21] | Plant response rating, Wheat [14, 21] | Plant response rating, Wheat [14, 25] | Wheat plant response rating [14, 22] | Wheat plant response rating [14, 26] | Plant response rating, Wheat [14, 23] | Wild oats plant response rating [15, 21] | Plant response rating, Wild oats [15, 21] | Plant response rating, Wild oats [15, 25] | Wild oats plant response rating [15, 22] | Wild oats plant response rating [15, 26] | Nutsedge plant response rating [16, 21] | Plant response rating, Nutsedge [16, 21] | Plant response rating, Nutsedge [16, 25] | Nutsedge plant response rating [16, 22] | Plant response rating, Nutsedge [16, 23] | Rice plant response rating [17, 27] | Rice plant response rating (0 to 10 scale, 0 is no effect, 10 is complete control) [17, 28] | Rice plant response rating [17, 29] | Rice plant response rating [17, 30] | S. Flatsedge plant response rating [18, 27] | S. Flatsedge plant response rating (0 to 10 scale, 0 is no effect, 10 is complete control) [18, 28] | S. Flatsedge plant response rating [18, 29] | S. Flatsedge plant response rating [18, 30] | Ducksalad plant response rating [19, 27] | Ducksalad plant response rating (0 to 10 scale, 0 is no effect, 10 is complete control) [19, 28] | Ducksalad plant response rating [19, 29] | Ducksalad plant response rating [19, 30] | Barnyardgrass plant response rating [20, 27] | Barnyardgrass plant response rating (0 to 10 scale, 0 is no effect, 10 is complete control) [20, 28] | Barnyardgrass plant response rating [20, 29] | Barnyardgrass plant response rating [20, 30]
6: Plant response rating, Blackgrass [2, 23] | Redroot pigweed plant response rating [9, 26]
5: Plant response rating, Redroot pigweed [9, 23]
